Results as given in PMC8321398, “The discovery of a novel series of compounds with single-dose efficacy against juvenile and adult Schistosoma species” (PLoS Neglected Tropical Diseases, 2021).
≈ marks a conversion by molar mass, not a printed value. Where “and” joins values, the source holds several entries; their conditions need not be identical. Equal entries are not always repeated. Where two headings read alike, the source gives them in different places.

Experiments:
Mouse pharmacokinetics = assay type: in vivo; conditions: for Plasma conc @ 24 h after oral dose / bioavailability: mixture of 5 compounds; for AUC(0-inf) / Vd / bioavailability / half-life / concentration at 24 h: male, Swiss albino, plasma; for Vd: read-out: Vss; for bioavailability: 2.5 mg/kg oral, calculated values > 100% shown as 100; for half-life: iv; for scaled plasma level, fold above the calculated whole blood IC50: 24 h; for concentration at 24 h: oral
Kinetic solubility = assay type: physicochemical
Source text: Table 4 in vitro, physicochemical and in vivo properties of compounds pictured in Fig 10. | column: Measured physicochemical properties / Kinetic solubility, pH 7.4 (uM); Measured physicochemical properties / Kinetic solubility, FaSSIF (uM); Measured physicochemical properties / Kinetic solubility, FeSSIF (uM)

[1] = Metabolic stability in mouse hepatocytes; assay type: in vitro ADME; conditions: hepatocytes (suspension); for remaining at 1.5 h, 1 µM: pH 7.4, 90 min incubation, read-out: Mouse hepatocyte % remaining at 90 min; for remaining at 0.5 h, 1 µM: pH 7.4, 30 min incubation, read-out: Mouse hepatocyte % remaining at 30 min
Description: 100 μM compound stock solution was prepared from 5 μL of 4 mM stock in DMSO + 195 μL MeCN. Working solution (2 μM compound) was prepared using 10 μL of 100 μM stock + 490 μL buffer pH 7.4 (KHB supplemented with CaCl2, NaHCO3, HEPES, fructose, glycine; pH 7.4).
Working solution (25 μL, 2 μM) was added in duplicate to wells in a 0.5 mL per well, 96 well plate which was preincubated to reach 37°C. Hepatocyte suspension (25 μL) was added to each plate, and the plate incubated (37°C, 95% relative humidity with 5% CO2 supply) under gentle mixing (Thermomixer @300 rpm). After designated time periods, ice-cold MeCN (250 μL) was added with a suitable standard. For T = 0 min, ice-cold MeCN (250 μL) with suitable standard was added to the working solution (2 μM) and hepatocyte suspension (25 μL) added. The plates for each time point were shaken, sonicated for 5 mins and kept at 4°C until the final plate was processed. The plates were centrifuged at 4,000 rpm for 20 min, supernatant (110 μL) was mixed with water (110 μL) and the samples analysed using LC-MS/MS.

Juvenile S. mansoni = test: In vitro juvenile (3 week old) S. mansoni worm assay; assay type: cell-based; conditions: Schistosoma mansoni; for EC50: Table 2, in vitro, 120 h incubation
Source text: The Puerto Rican strain of S. mansoni was maintained in Biomphalaria glabrata and CD1 mice. Oncomelania hupensis (hupensis) infected with S. japonicum (Chinese strain) and Bulinus truncatus (truncatus) infected with Egyptian strain S. haematobium were obtained from BEI Resources, NIAID, NIH. Infection of mice for worm recovery was as previously described except that, whereas cercariae of S. mansoni and S. haematobium were obtained by shedding from infected snails under lights, cercariae of S. japonicum were obtained by gently crushing the snails. Furthermore, adult S. haematobium were recovered after 12 weeks following mouse infection.
In vitro efficacy was carried out as previously described. In brief, worms were recovered from infected mice by portal perfusion 3 weeks (for juveniles) or 6 weeks (for adults) post-infection using warm perfusion medium (Dulbecco’s Modified Eagle’s Medium [DMEM], 2mM L-glutamine, 100 Units/ml penicillin, 100μg/ml streptomycin, 20mM Hepes, 10 Units/ml heparin [Sigma, UK]). Worms were washed free of red blood cells using the perfusion medium, and finally suspended in complete medium (cDMEM: DMEM, 2mM L-glutamine, 100 Units/ml penicillin, 100μg/ml streptomycin, 10% FCS). The juvenile assays were carried out in 96-well plates, each well containing 6–8 worms in 200 μL cDMEM. The adult worm assay was in 24-well plates, each well containing 3 worm pairs in 1mL cDMEM. Both the juvenile and adult worm cultures were kept at 37° C, in an atmosphere of 5% CO2. Drug effects were determined on day 5 following drug treatment by assessing the viability of individual worms as described in [14].

[2] = Plasma protein binding in human plasma at 10 uM, equilibrium dialysis; assay type: in vitro ADME; conditions: for recovery at 6 h, 10 µM: human, human plasma, pH 7.4
Description: (§1) Each experiment was performed in duplicate for the compound being tested. A working solution of compound was prepared from 10 μL of 10 mM solution in DMSO + 190 μL 40:60 MeCN:Water. A Total solution was prepared from 12 μL of working solution + 588 μL plasma (compound conc: 10 μM, DMSO: 0.1%, ACN:0.76%). In an equilibrium dialysis chamber, Total solution (200 μL) was added to the plasma chamber and PBS pH 7.4 (350 μL) was added to the buffer chamber. The chamber was then incubated at 37°C for 6 h with constant shaking at 400 rpm (Thermomixer comfort, Eppendorf). Aliquots were removed from both plasma and buffer chambers and the following test samples prepared: Blank: blank Plasma (20 μL) + blank buffer (60 μL), Buffer: blank plasma (20 μL) + test buffer (60 μL), Plasma: test plasma (20 μL) + blank buffer (60 μL), Total: total sample (20 μL) + blank buffer (60 μL). Ice-cold acetonitrile (160 μL), containing a suitable standard was added to all samples, they were shaken vigorously and centrifuged at 4,000 rpm for 20 min at 15°C. Supernatant (110 μL) from each sample was diluted with water (110 μL) and the sample analysed by LC-MS/MS.
(§2) % Free = 100 × (AREA in buffer × dilution factor)/(AREA in Plasma × dilution factor)
(§3) % Recovery = 100 ×[(Avg AREA in buffer × dilution factor) + (Avg AREA in Plasma × dilution factor)] / (Avg AREA in Total × dilution factor)

[3] = Plasma protein binding in mouse plasma at 10 uM, equilibrium dialysis; assay type: in vitro ADME; conditions: for recovery at 6 h, 10 µM: mouse, mouse plasma, pH 7.4
Description: as §1, §2, §3

[4] = 0.5 mg/kg iv, in a mixture of 5 compounds
[5] = FaSSIF, pH 6.5, read-out: Kinetic solubility, FaSSIF
[6] = FeSSIF, pH 5, read-out: Kinetic solubility, FeSSIF
[7] = pH 7.4, read-out: Kinetic solubility, pH 7.4
[8] = 0.5 mg/kg, 0.5 mg/kg iv, in a mixture of 5 compounds, sampled over 24 h
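For Clobs in this document: three mice per experiment, dosed in 10% DMSO with 50 mM Na2HPO4 buffer plus Tween-80, plasma levels quantified by LC-MS against a calibration line prepared in blank matrix.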
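For F in this document: three mice per experiment, dosed in 10% DMSO with 50 mM Na2HPO4 buffer plus Tween-80, plasma levels quantified by LC-MS against a calibration line prepared in blank matrix.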
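For Plasma conc @ 24 h after oral dose in this document: three mice per experiment, dosed in 10% DMSO with 50 mM Na2HPO4 buffer plus Tween-80, plasma levels quantified by LC-MS against a calibration line prepared in blank matrix.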
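For Vss in this document: three mice per experiment, dosed in 10% DMSO with 50 mM Na2HPO4 buffer plus Tween-80, plasma levels quantified by LC-MS against a calibration line prepared in blank matrix.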

Row | SMILES | Clobs (Mouse pharmacokinetics; [4]) [mL/min/kg] | AUC(0-inf) (Mouse pharmacokinetics; [4]) [ng·h/mL] | Vd (Mouse pharmacokinetics; [4]) [L/kg] | bioavailability (Mouse pharmacokinetics) [%] | solubility kinetic at 24 h (Kinetic solubility; [5]) [µM] | solubility kinetic at 24 h (Kinetic solubility; [6]) [µM] | solubility kinetic at 24 h (Kinetic solubility; [7]) [µM] | remaining at 1.5 h, 1 µM [1] [%] | EC50 (Juvenile S. mansoni) [nM] | Human plasma protein %binding [2] [%] | recovery at 6 h, 10 µM [2] [%] | Mouse plasma protein %binding [3] [%] | recovery at 6 h, 10 µM [3] [%] | half-life (Mouse pharmacokinetics; [8]) [h] | remaining at 0.5 h, 1 µM [1] [%] | also measured
1 | Fc1ccc(-c2cn3c(-c4ccc5[nH]ncc5c4F)c(C(F)(F)F)nc3cn2)cc1C(F)(F)F [LSHTM-3642, 3-(4-fluoro-1H-indazol-5-yl)-6-(4-fluoro-3-(trifluoromethyl)phenyl)-2-(trifluoromethyl)imidazo[1,2-a]pyrazine] | 2.17 | 5500 | 8.7 | 83 | 196 (≈ 94.7 µg/mL) | 197 (≈ 95.2 µg/mL) | 0.854 (≈ 0.413 µg/mL) | 90 | 48 | 99.9895 | 97.4 | 99.9915 | 92.1 | – | – | Plasma conc @ 24 h after oral dose (Mouse pharmacokinetics): 227 ng/mL
2 | Fc1c(-c2c(C(F)(F)F)nc3cnc(-c4cccc(C(F)(F)C(F)(F)F)c4)cn23)ccc2[nH]ncc12 [LSHTM-3608] | 1.5 | 6200 | 4 | 100 | 200 (≈ 103 µg/mL) | 196 (≈ 101 µg/mL) | 0.704 (≈ 0.363 µg/mL) | 88 | 21 | 100 | 97.8 | 99.9195 | 80.8 | 37.1 | – | –
3 | Fc1ccc(-c2cn3c(-c4ccc5[nH]ncc5c4F)c(C(F)(F)F)nc3cn2)cc1C(F)(F)C(F)(F)F [LSHTM-3645] | 3.5 | 2400 | 6.4 | 100 | 199 (≈ 106 µg/mL) | 200 (≈ 107 µg/mL) | 0.264 (≈ 0.141 µg/mL) | 94 | 10.7 | 100 | 85.8 | 100 | 96.9 | 23.4 | – | –
4 | CC(C)c1nc2cnc(-c3ccc(F)c(C(F)(F)F)c3)cn2c1-c1ccc2[nH]ncc2c1F [LSHTM-3604] | 4.33 | 1900 | 3.4 | 60 | – | – | 0.834 (≈ 0.381 µg/mL) | 80 | 33.2 | 99.9973 | 92.4 | 99.9858 | 94.5 | 10.5 | 89 | scaled plasma level, fold above the calculated whole blood IC50 (Mouse pharmacokinetics; efficacy dose (dose not given)): 9.4 fold; concentration at 24 h (Mouse pharmacokinetics; plasma level after 24 h scaled from […] dose, scaled to the efficacy dose (dose not given), read-out: plasma level after 24 h scaled from 2.5 mg/kg dose): 1430 ng/mL; solubility kinetic (Kinetic solubility; FaSSIF, read-out: Kinetic solubility, FaSSIF): 200 µM (≈ 91.5 µg/mL); solubility kinetic (Kinetic solubility; FeSSIF, read-out: Kinetic solubility, FeSSIF): 200 µM (≈ 91.5 µg/mL); IC50 (Juvenile S. mansoni; 10 fold the in vitro value (assay run at 10% of whole blood protein), read-out: calculated whole blood IC50): 0.152 µg/mL (≈ 0.332 µM)
5 | CC(C)c1cc(-c2cn3c(-c4ccc5[nH]ncc5c4F)c(C4CC4)nc3cn2)ccc1F [LSHTM-3686] | 15.7 | 500 | 3.9 | 100 | 33.9 (≈ 14.6 µg/mL) | 43.8 (≈ 18.8 µg/mL) | 0.885 (≈ 0.38 µg/mL) | 75 | 4.1 | 99.998 | 62.7 | 99.997 | 76.1 | 6 | – | half life (Mouse pharmacokinetics; 0.5 mg/kg iv, in a mixture of 5 compounds, sampled over 24 h, 0.5 mg/kg): 6.2 h
6 | CC(C)c1nc2cnc(-c3ccc(F)c(C(F)(F)F)c3)cn2c1-c1c(F)cc(O)cc1F [LSHTM-3520] | – | 500 | 7.1 | 50 | – | – | 12.7 (≈ 5.73 µg/mL) | 44 | 27 | 99.9895 | 97.1 | 99.97 | 91.5 | 7 | 65 | Clobs (Mouse pharmacokinetics; 0.5 mg/kg iv, in a mixture of 5 compounds, 0.5 mg/kg): 18.3 mL/min/kg and 18 mL/min/kg; scaled plasma level, fold above the calculated whole blood IC50 (Mouse pharmacokinetics; 50 mg/mL (so in the source)): 1.3 fold; scaled plasma level, fold above the calculated whole blood IC50 (Mouse pharmacokinetics; 200 mg/mL (so in the source)): 5.3 fold; Plasma conc @ 24 h after oral dose (Mouse pharmacokinetics; […]): 8.1 ng/mL; concentration at 24 h (Mouse pharmacokinetics; 50 mg/mL, scaled from […] to 50 mg/mL (so in the source), linear kinetics assumed, read-out: plasma level after 24 h scaled from the low-dose oral PK experiment): 160 ng/mL; concentration at 24 h (Mouse pharmacokinetics; 200 mg/mL, scaled from […] to 200 mg/mL (so in the source), linear kinetics assumed, read-out: plasma level after 24 h scaled from the low-dose oral PK experiment): 640 ng/mL; half-life at 1 µM ([1]; pH 7.4, calculated from % remaining): 1.25 h
